Assay results reported in patent US20260250337A1, “HYBRID ANTIMICROBIAL PEPTIDES” (UNIVERSIDADE FEDERAL DO ABC, priority 2023, published 2026).
No end group written: not given here.

Assays:
bacterial strains = assay: Antimicrobial activity over the panel of strains; assay type: cell-based; conditions: range of concentrations tested
Method: (§1) Initially, the antimicrobial activity was determined by liquid growth inhibition assays, as previously described by Pedron et al.^62. Briefly, Peptone Broth and Potato Dextrose Broth (Invitrogen) were used for antibacterial and antifungal assays, respectively. Two-fold serial dilutions of peptides (0.09-50 μmol L^−1) and microorganisms (Serratia marcescens ATCC 4112, Enterobacter cloacae β-12, Micrococcus luteus A270, Bacillus megaterium ATCC 10778, Bacillus subtilis ATCC 6633, Candida albicans MDM8, and Candida tropicalis IOC 4560) were incubated at 37° C. for 18 h (for bacteria) or 24 h (for fungi), and microbial growth was assessed by absorbance measurements at 595 nm. Experiments were performed in three biological repeats.
Method. The minimal inhibitory concentration (MIC) against the ESKAPE pathogens was determined using the broth microdilution method^81, 82 in Luria-Bertani (LB) medium. The MIC value was defined as the lowest concentration of peptide at which no microbial growth was observed. A. baumannii ATCC19606, E. coli ATCC11775, E. coli AIC221, E. coli AIC222, K. pneumoniae ATCC13883, S. aureus ATCC12600 P. aeruginosa PAO1, and P. aeruginosa PA14 were incubated on agar plates, and after 24 h, three isolated colonies were inoculated to 5 mL of Luria-Bertani (LB) broth and maintained at 37° C. overnight with shaking. Peptides were then added to 96-well polystyrene microtiter plates at concentrations ranging from 0 to 128 μmol L^−1, and 5×10^5 CFU mL^−1 of each bacterium was inoculated in each well. The plates were incubated at 37° C. for 24 h. Bacterial growth was measured using a microplate reader at 610 nm. Three independent replicates were performed.

human erythrocytes = assay: Hemolytic activity assay; assay type: cell-based
Method: Method. Assays against freshly collected human erythrocytes were performed following protocols described by Pedron et al. 62. Briefly, peptide aliquots at concentrations ranging from 0.1 to 100 μmol L−1 were incubated with a suspension of erythrocytes at room temperature for 1 h. The samples were then centrifuged, and the absorbance of the supernatant was measured at 405 nm. The MHC (maximal non-hemolytic concentration) was determined as the maximal concentration at which 100% of the erythrocytes were viable. The surfactant SDS and PBS buffer were used as positive88, 89 and negative controls, respectively. Sodium heparin was used as an anticoagulant when collecting human blood. Three biological repeats were performed.

S. marcescens ATCC 4112 = assay: Liquid growth inhibition assay, MIC; assay type: cell-based, Serratia marcescens; conditions: 37° C., 18 h
Method: as §1

C. tropicalis IOC 4560 = assay: Liquid growth inhibition assay, MIC (antifungal); assay type: cell-based, Candida tropicalis; conditions: 37° C., 24 h
Method: as §1

E. cloacae β-12 = assay: Liquid growth inhibition assay, MIC; assay type: cell-based, Enterobacter cloacae; conditions: 37° C., 18 h
Method: as §1

[1] = Resistance to degradation in fetal bovine serum; assay type: in vitro ADME; conditions: fetal bovine serum 25% in water, 37° C.
Method: The resistance to proteolytic degradation of the hybrid peptides was assessed by exposing them for 6 h to serum peptidases in a fetal bovine serum solution^68, 69 (FIG. 5a and Table S4). The peptide degradation kinetics were calculated by integrating the peak area of the peak in relation to the peptide at the beginning of the experiment (time=0) and comparing it to the integrated peak area relative to the peptides after exposure to the enzymes at time points: 0.5, 1, 2, 4, and 6 h (FIG. 5a and Table S4). […] However, AV was resistant to degradation against proteases, with almost 40% peptide content remaining after 4 h of exposure (FIG. 5a and Table S4). […] VP was almost entirely degraded after 30 min (22% of peptide remaining). […] D-amino acid substitutions have been used as alternatives to prevent the degradation of AMPs. For example, Qiu et. al. described a protonectin analog with a D-Lys residue in position 10 as an alternative to protonectin; this analog is not degraded and has higher antimicrobial activity against bacteria and fungi than the original peptide.
Methods. Stability assays were performed following the protocol described by Torres et al.^71. Briefly, a peptide solution was added to GIBCO fetal bovine serum diluted to 25% in water and kept at 37° C. The degradation kinetics were monitored by liquid chromatography and the percentage of peptide remaining was calculated by integrating the peptide peak area. The experiments were performed as three independent replicates, and aliquots were taken at 0, 0.5, 1, 2, 4, and 6 h.

C. albicans MDM8 = assay: Liquid growth inhibition assay, MIC (antifungal); assay type: cell-based, Candida albicans; conditions: 37° C., 24 h
Method: as §1

[2] = tested on: S. epidermidis ATCC 12228; assay: Liquid growth inhibition assay, MIC; assay type: cell-based; conditions: 37° C., 18 h
[3] = tested on: Plasmodium gallinaceum sporozoites; assay: Antiplasmodial activity, fluorescence microscopy; assay type: cell-based
Method: Method. The activity of the peptides against Plasmodium gallinaceum sporozoites was determined by fluorescence microscopy, as previously described by Silva et. al.^83. Briefly, 9,000 sporozoites were isolated from the glands of infected Aedes aegypti mosquitos and incubated with serially diluted peptides (ranging from 0.1 to 1.6 μmol L^−1) at 37° C. for 1 h. A PBS solution and the surfactant digitonin^84, 85 were used as negative and positive controls, respectively. Propidium iodide was used to stain dead cells. Assays were executed using fluorescence microscopy. Three biological repeats each with three different mosquito batches (n=9) were used.

M. luteus A270 = assay: Liquid growth inhibition assay, MIC; assay type: cell-based, Micrococcus luteus; conditions: 37° C., 18 h
Method: as §1

[4] = Circular dichroism, helical fraction (Lifson-Roig); assay type: physicochemical; conditions: peptide 50 μmol L^−1
Method: Method. Circular dichroism (CD) assays were performed with a Spectropolarimeter Jasco Mod. J-815 (JascoCorp). CD spectra were obtained in Far-UV (195-260 nm), and analyzed in the following solutions: water, 2,2,2-trifluoroethanol (TFE) in water (3:2, v:v), phosphate buffer saline (PBS, 10 mmol L^−1, pH 7.4), sodium dodecyl sulfate (SDS 20 mmol L^−1) in water, palmitoyloleoylphosphatidylcholine (POPC; 10 mmol L^−1), palmitoyloleoylphosphatidylcholine:dioleylphosphatidylethanolamine (POPC:DOPE; 3:1, mol:mol, 10 mmol L^−1) and palmitoyloleoylphosphatidylcholine:palmitoyloleoylphosphatidylglycerol (POPC:POPG; 3:1, mol:mol, 10 mmol L^−1) at a peptide concentration of 50 μmol L^−1. These experiments were performed as described in detail by Pedron et al.^62.

B. megaterium ATCC 10778 = assay: Liquid growth inhibition assay, MIC; assay type: cell-based, Bacillus megaterium; conditions: 37° C., 18 h
Method: as §1

In the case of “GLGALLNVIKSGL-NH2 [AV, Gly-Leu-Gly-Ala-Leu-Len-Asn-Val-Ile-Lys-Ser-Gly-Leu]”, the “antimicrobial activity” value (bacterial strains) is reported as “lower antimicrobial activities than the corresponding template peptides”, the “hemolytic activity” value (human erythrocytes; 0.1 to 100 μmol L^−1) is reported as “minimal hemolytic activity” and the “Hemolytic activity, concentration of peptide needed to kill 10% of red blood cells” value (human erythrocytes; human erythrocytes, 1 h) is reported as 100 µmol/L. For the same substance, the MHC (human erythrocytes; human erythrocytes, 1 h, room temperature, concentration with approximately 0% of hemolytic activity) was >100 µmol/L, the “MIC S. marcescens ATCC 4112” value (S. marcescens ATCC 4112) was 50 µM and the “MIC C. tropicalis IOC 4560” value (C. tropicalis IOC 4560) was 50 µM. The “MIC E. cloacae β-12” value (E. cloacae β-12) was >50 µM, the remaining at 0.5 h ([1]; bovine, fetal bovine serum, 25% in water, 30 min, read-out: remaining peptide, 30 min) was ~40% and the remaining at 1 h ([1]; bovine, fetal bovine serum, 25% in water, 1 h, read-out: remaining peptide, 1 h) was ~40%. For the same substance, the remaining at 2 h ([1]; bovine, fetal bovine serum, 25% in water, 2 h, read-out: remaining peptide, 2 h) was ~40%, the remaining at 4 h ([1]; bovine, fetal bovine serum, 25% in water, 4 h, read-out: remaining peptide, 4 h) was ~40% and the “remaining peptide, 4 h” value ([1]; 4 h) was ~40%. The “MIC C. albicans MDM8” value (C. albicans MDM8) was 50 µM, the “MIC S. epidermidis ATCC 12228” value [2] was >50 µM and the “P. gallinaceum (% sporozoites at 0.8 μmol L^−1)” value ([3]; 0.8 μmol L^−1, fluorescent (propidium iodide stained) sporozoites, 37° C., 1 h) was 90%. The “antiplasmodial activity” value ([3]; P. gallinaceum sporozoites, concentration range tested) was “exhibited antiplasmodial activity”, the “MIC M. luteus A270” value (M. luteus A270) was 6.3 µM and the “Helical fraction (fH) PBS” value ([4]; PBS 10 mmol L^−1, pH 7.4) was 0.05. For the same substance, the “Helical fraction (fH) POPC” value ([4]; POPC 10 mmol L^−1) was 0.03, the “Helical fraction (fH) POPC:DOPE” value ([4]; POPC:DOPE 3:1, mol:mol, 10 mmol L^−1) was 0.08 and the “Helical fraction (fH) POPC:POPG” value ([4]; POPC:POPG 3:1, mol:mol, 10 mmol L^−1) was 0.04. The “Helical fraction (fH) SDS” value ([4]; SDS 20 mmol L^−1 in water) was 0.31, the “Helical fraction (fH) TFE/Water” value ([4]; TFE in water (3:2, v:v)) was 0.42 and the “Helical fraction (fH) Water” value ([4]; water) was 0.08. The “MIC B. megaterium ATCC 10778” value (B. megaterium ATCC 10778) was >50 µM.
